Series [1] can be described thus: Chemical stability of compound in pH 7 MeOH/water solution measured after 24 hrs by HPLC-MS analysis. The settings on record: buffer, pH 7, 24 h. In kind it is physicochemical.
Series [2] concerns the target P2Y purinoceptor 1 (Homo sapiens) (UniProt P47900). The series is described as follows: Antagonist activity at human P2Y1 receptor expressed in human 1321N1 cells assessed as inhibition of ADP-induced intracellular calcium influx at 10 uM preincubated for 20 mins followed by ADP addition measured at 0.4 secs interval for 60 times by Oregon Green BAPTA-1/AM dye-based fluorescence assay. In kind it is functional, cell-based. For orientation: A change in cytosolic calcium serves as a functional read-out for many receptors and channels.

Series [3] concerns the target T1, P2Y purinoceptor 14 (Homo sapiens) (UniProt Q15391).
T1 sequence (whole entry): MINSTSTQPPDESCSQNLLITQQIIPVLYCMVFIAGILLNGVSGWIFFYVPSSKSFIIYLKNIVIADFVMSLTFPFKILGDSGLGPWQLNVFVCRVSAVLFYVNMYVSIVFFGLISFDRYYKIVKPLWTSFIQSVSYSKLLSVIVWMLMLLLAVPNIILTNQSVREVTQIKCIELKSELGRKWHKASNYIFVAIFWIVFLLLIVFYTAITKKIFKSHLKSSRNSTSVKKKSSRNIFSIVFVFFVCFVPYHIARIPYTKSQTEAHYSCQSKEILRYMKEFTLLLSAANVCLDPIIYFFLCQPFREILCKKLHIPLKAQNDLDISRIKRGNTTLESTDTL
The series is described as follows: Antagonist activity at recombinant human Gi/Go-coupled GP2Y14 receptor expressed in CHOK1 cells assessed as inhibition of […]-induced inhibition of beta-arrestin recruitment at 10 uM by pathhunter assay. In kind it is cell-based. On the technique in general: Recruitment of arrestin is a read-out of receptor activation apart from second messengers.

The nature of series [4]: Chemical stability of compound in pH 3 MeOH/water solution measured after 24 hrs by HPLC-MS analysis. In kind it is physicochemical. The settings on record: buffer, pH 3, 24 h.
Series [5] deals with P2Y purinoceptor 4 (Homo sapiens) (UniProt P51582). As to the kind of experiment: Antagonist activity at human P2Y4 receptor expressed in human 1321N1 cells assessed as inhibition of UTP-induced intracellular calcium influx at 10 to 100 uM preincubated for 20 mins followed by UTP addition measured at 0.4 secs interval for 60 times by Oregon Green BAPTA-1/AM dye-based fluorescence assay. In kind it is functional, cell-based. The settings on record: dose 10-100 µM.
Chain of P2Y purinoceptor 4 (Homo sapiens) (P51582 whole entry): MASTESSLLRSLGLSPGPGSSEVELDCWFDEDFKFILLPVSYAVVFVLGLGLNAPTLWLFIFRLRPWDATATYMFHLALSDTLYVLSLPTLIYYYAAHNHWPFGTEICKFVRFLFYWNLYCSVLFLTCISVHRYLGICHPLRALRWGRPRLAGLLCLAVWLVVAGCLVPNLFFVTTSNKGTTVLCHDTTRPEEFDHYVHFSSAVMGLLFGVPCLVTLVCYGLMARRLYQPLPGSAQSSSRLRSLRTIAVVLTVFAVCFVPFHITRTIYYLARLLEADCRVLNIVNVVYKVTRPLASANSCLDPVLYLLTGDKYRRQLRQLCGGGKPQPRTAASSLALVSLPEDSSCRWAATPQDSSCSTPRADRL

A short description of series [6]: Chemical stability of compound in pH 7 MeOH/water solution at 70 degC measured after 24 hrs by HPLC-MS analysis. The settings on record: buffer, pH 7, 24 h. In kind it is physicochemical.
Series [7] concerns the target P2Y purinoceptor 12 (Homo sapiens) (UniProt Q9H244). As to the kind of experiment: Antagonist activity at recombinant human Gi/Go-coupled GP2Y12 receptor expressed in CHOK1 cells assessed as inhibition of 2-(Methylthio)ADP-induced inhibition of beta-arrestin recruitment at 10 uM by pathhunter assay. The settings on record: CHO-K1. In kind it is cell-based.
For series [8], the target named is P2Y purinoceptor 6 (Rattus norvegicus) (UniProt Q63371). As to the kind of experiment: Antagonist activity at rat P2Y6 receptor expressed in human 1321N1 cells assessed as inhibition of UDP-induced intracellular calcium influx at 10 to 100 uM preincubated for 20 mins followed by UDP addition measured at 0.4 secs interval for 60 times by Oregon Green BAPTA-1/AM dye-based fluorescence assay. In kind it is functional, cell-based. The following applies: dose 10-100 µM.
Chain of P2Y purinoceptor 6 (Rattus norvegicus) (Q63371 whole entry): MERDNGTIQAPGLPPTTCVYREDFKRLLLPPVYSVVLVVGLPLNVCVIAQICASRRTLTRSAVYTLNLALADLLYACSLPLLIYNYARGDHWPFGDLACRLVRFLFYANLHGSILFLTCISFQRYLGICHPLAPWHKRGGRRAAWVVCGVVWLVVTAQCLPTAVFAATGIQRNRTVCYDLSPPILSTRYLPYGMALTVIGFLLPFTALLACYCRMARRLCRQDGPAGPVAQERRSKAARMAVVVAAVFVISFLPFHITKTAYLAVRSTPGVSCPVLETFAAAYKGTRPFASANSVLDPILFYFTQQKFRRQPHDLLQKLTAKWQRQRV

Series [9] can be described thus: Drug metabolism in pH 9 MeOH/water solution assessed as methyl 4-(2-chlorobenzamido)benzenesulfonate formation measured after 24 hrs by HPLC-MS analysis.
In series [10] the target is T2, Uracil nucleotide/cysteinyl leukotriene receptor (Homo sapiens, UniProt Q13304). The series is described as follows: Antagonist activity at human GPR17 expressed in human 1321N1 cells assessed as inhibition of ATP-induced intracellular calcium influx preincubated for 20 mins followed by ATP addition measured at 0.4 secs interval for 60 times by Oregon Green BAPTA-1/AM dye-based fluorescence assay. In kind it is functional, cell-based.
T2 sequence (Q13304 whole entry): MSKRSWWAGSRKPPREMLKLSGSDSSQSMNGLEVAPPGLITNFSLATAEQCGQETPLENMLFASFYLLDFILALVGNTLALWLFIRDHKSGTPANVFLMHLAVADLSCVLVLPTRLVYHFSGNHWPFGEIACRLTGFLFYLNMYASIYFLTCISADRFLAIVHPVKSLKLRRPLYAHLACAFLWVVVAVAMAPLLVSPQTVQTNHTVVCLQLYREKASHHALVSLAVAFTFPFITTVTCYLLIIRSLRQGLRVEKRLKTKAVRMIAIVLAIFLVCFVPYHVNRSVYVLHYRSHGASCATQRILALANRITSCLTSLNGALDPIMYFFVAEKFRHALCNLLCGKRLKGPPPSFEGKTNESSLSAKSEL

The target in series [11] is P2Y purinoceptor 2 (Homo sapiens, UniProt P41231). As to the kind of experiment: Antagonist activity at human P2Y2 receptor expressed in human 1321N1 cells assessed as inhibition of ATP-induced intracellular calcium influx preincubated for 20 mins followed by ATP addition measured at 0.4 secs interval for 60 times by Oregon Green BAPTA-1/AM dye-based fluorescence assay. In kind it is functional, cell-based.
Chain of P2Y purinoceptor 2 (P41231 whole entry): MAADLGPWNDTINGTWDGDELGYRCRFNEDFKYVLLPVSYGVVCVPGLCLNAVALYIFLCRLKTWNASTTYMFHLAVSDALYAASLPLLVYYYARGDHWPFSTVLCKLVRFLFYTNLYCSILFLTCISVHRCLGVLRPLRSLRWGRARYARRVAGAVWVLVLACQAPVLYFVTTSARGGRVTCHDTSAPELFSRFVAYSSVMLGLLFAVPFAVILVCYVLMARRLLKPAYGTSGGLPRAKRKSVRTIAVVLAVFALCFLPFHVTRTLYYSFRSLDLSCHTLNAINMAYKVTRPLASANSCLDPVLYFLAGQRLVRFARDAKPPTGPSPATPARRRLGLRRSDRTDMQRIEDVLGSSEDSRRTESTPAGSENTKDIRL

The target of series [12] is T2, Uracil nucleotide/cysteinyl leukotriene receptor. As to the kind of experiment: Antagonist activity at human GPR17 expressed in human 1321N1 cells assessed as inhibition of ATP-induced intracellular calcium influx at 10 uM preincubated for 20 mins followed by ATP addition measured at 0.4 secs interval for 60 times by Oregon Green BAPTA-1/AM dye-based fluorescence assay relative to control. In kind it is functional, cell-based.

The target of series [13] is P2Y purinoceptor 6 (Rattus norvegicus, UniProt Q63371). The series is described as follows: Antagonist activity at rat P2Y6 receptor expressed in human 1321N1 cells assessed as inhibition of UDP-induced intracellular calcium influx preincubated for 20 mins followed by UDP addition measured at 0.4 secs interval for 60 times by Oregon Green BAPTA-1/AM dye-based fluorescence assay. In kind it is functional, cell-based.
Chain of P2Y purinoceptor 6 (Q63371 whole entry): as the sequence (Q63371 whole entry) above

This is an account of results in ChEMBL document CHEMBL4715830, “Design, synthesis and biological evaluation of suramin-derived dual antagonists of the proinflammatory G protein-coupled receptors P2Y and GPR17” (Eur J Med Chem, 2020).

The inhibition is the percentage by which the read-out fell short of the control. As usually defined, the IC50 is the concentration at which inhibition is half-maximal.

The source made the active and inactive calls. No cut-off for these calls is given here.

Chain of P2Y purinoceptor 1 (Homo sapiens) (P47900 whole entry): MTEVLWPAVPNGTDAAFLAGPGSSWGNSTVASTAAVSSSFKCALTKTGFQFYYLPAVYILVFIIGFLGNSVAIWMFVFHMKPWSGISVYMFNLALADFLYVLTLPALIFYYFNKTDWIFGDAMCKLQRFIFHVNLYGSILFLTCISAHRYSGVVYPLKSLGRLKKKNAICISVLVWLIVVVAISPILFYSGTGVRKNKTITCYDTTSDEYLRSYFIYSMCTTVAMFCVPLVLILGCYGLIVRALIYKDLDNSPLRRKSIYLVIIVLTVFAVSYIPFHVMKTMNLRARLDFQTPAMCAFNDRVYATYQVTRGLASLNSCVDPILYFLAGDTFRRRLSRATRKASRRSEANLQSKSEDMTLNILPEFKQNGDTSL
Chain of P2Y purinoceptor 12 (Homo sapiens) (Q9H244 whole entry): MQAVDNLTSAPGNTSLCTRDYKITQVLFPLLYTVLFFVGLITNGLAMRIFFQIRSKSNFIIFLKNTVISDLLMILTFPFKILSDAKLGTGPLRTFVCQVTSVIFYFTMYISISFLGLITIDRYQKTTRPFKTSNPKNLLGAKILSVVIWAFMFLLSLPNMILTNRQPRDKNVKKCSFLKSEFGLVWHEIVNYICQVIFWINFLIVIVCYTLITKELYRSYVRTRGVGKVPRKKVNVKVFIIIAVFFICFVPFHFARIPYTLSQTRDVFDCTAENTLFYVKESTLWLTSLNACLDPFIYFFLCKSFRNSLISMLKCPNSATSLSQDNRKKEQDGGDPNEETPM

In the case of `O=C(Nc1ccc(S(=O)(=O)Oc2cccc([N+](=O)[O-])c2)cc1)c1ccccc1Cl`, the Stabilty result in [1], in series [4] and in series [6] was “Stable” in each case. Also, the inhibition entry in series [2], in series [3], in series [5], in series [7] and in [8] was “inactive” throughout. In addition, in [9], the Drug metabolism came out at 1.4%.
For `Cc1ccc(C(=O)Nc2ccc(S(=O)(=O)O)c3cc(S(=O)(=O)O)cc(S(=O)(=O)O)c23)cc1NC(=O)c1cccc(NC(=O)Nc2cccc(C(=O)Nc3cc(C(=O)Nc4ccc(S(=O)(=O)O)c5cc(S(=O)(=O)O)cc(S(=O)(=O)O)c45)ccc3C)c2)c1` [SURAMIN HEXASODIUM], the concentration for half-maximal inhibition (IC50) in series [10] and in [11] was more than 100 µM in each case. Also, the inhibition in series [12] came out at 33%.
Regarding `Cc1cccc(C(=O)Nc2ccc(S(=O)(=O)Oc3cccc([N+](=O)[O-])c3)cc2)c1`, the inhibition result in series [2], in series [3], in series [5] and in series [7] was “inactive” each time. In addition, the IC50 in series [13] was found to be 6.19 µM.
As to `O=C(Nc1ccc(S(=O)(=O)Oc2cccc([N+](=O)[O-])c2)cc1)c1ccc(Cl)cc1`, the inhibition result in series [2], in series [3], in series [5], in [7] and in series [8] was “inactive” throughout.
As for `COC(=O)c1cccc(NC(=O)Nc2cccc(NC(=O)c3cccc(C)c3)c2)c1`, the inhibition result in series [2], in [3], in [5], in [7] and in series [8] was “inactive” each time.
For the molecule `O=C(Nc1ccc(S(=O)(=O)Oc2cccc([N+](=O)[O-])c2)cc1)c1ccc(Cl)c(Cl)c1`, the inhibition result in series [2], in series [3], in [5], in [7] and in series [8] was “inactive” in each case.
With `Cc1cccc(C(=O)Nc2ccc(NC(=O)c3ccc([N+](=O)[O-])cc3)cc2)c1`, the inhibition result in series [2], in series [3], in [5], in series [7] and in series [8] was “inactive” in each case.
Turning to `Cc1cccc(C(=O)Nc2ccc(NC(=O)Nc3cccc(C(=O)O)c3)cc2)c1`, the inhibition result in [2], in series [3], in series [5], in [7] and in series [8] was “inactive” each time.
`Cc1cccc(NC(=O)c2cccc(NC(=O)c3cccc([N+](=O)[O-])c3)c2)c1`: the inhibition result in [2], in series [3], in series [5], in series [7] and in series [8] was “inactive” each time.
On to `O=C(Nc1ccc(S(=O)(=O)Oc2cccc([N+](=O)[O-])c2)cc1)c1cccc(F)c1`, for which the inhibition entry in [2], in series [3], in series [5], in [7] and in [8] was “inactive” each time.
